The bioavailability is the share of a dose that reaches the circulation, judged against a reference dose that is usually intravenous.

We go through 12 compounds from patent US12473298B2, “Amide compounds, preparation method therefor, and use thereof in the medical field” (Shanghai Synergy Pharmaceutical Sciences Co., Ltd., priority 2019, dated 2025).

Molecules are shown by their SMILES. Counter-ions that a name gives are not always drawn. Like-named read-outs stand apart in the source and are kept apart here.

Series [1] has as its system human diffuse large B-cell lymphoma cells (Karpas 422 cell). Kind of series: Karpas 422 cell proliferation, Calcein AM staining. The series is classed as cell-based. To be noted: Homo sapiens.
Series [2] in a line: Pharmacokinetic experiment in rats. The class given is in vivo, SD rats. To be noted: for AUC / Cmax / bioavailability: male, SD, rat; for AUC: read-out: Area Curve (AUC, ng/mL · h); for half-life: male, SD, rat, plasma; rats, Intravenous-Dose 4 mg/kg; read-out: Half life T1/2, h) (converted); for Cmax: read-out: Blood Drug level (Cmax, ng/mL). As for the experimental part:
A certain amount of compound was weighted and dissolved in 0.1% Tween under vortex and ultrasound, and 0.5% carboxymethyl cellulose sodium (CMC-NA) solution was added to form a uniform solution.

Series [3] has as its system human diffuse large cell lymphoma B lymphocytes (Pfeiffer cell). Kind of series: Pfeiffer cell proliferation, Calcein AM staining. The class given is cell-based. The settings on record: Homo sapiens, Pfeiffer; data of 14th day; read-out: Pfeiffer Proliferation IC50 Nanomoles per Liter.
From the text: The diffuse large cell lymphoma B lymphocytes (Pfeiffer cells) were collected and counted when growing well.
Where [4] appears, read: KARPAS-422, read-out: Karpas422 Proliferation IC50 Nanomoles per Liter (nM).
The mark [5] stands for this setting: plasma, rats, Intravenous-Dose 4 mg/kg.
The mark [6] stands for this setting: plasma, rats, Oral-Dose 20 mg/kg.
Where [7] appears, read: plasma, rats, oral 20 mg/kg vs intravenous 4 mg/kg, read-out: Bioavailability (P %).
Where [8] appears, read: KARPAS-422, data of 14th day, read-out: Karpas422 Proliferation IC50 Nanomoles per Liter.

Consider `CCN(c1cc(-c2ccc3c(c2)N(C(C)C)C(=O)C32CCOCC2)cc(C(=O)NCc2c(OC)cc(C)[nH]c2=O)c1C)C1CCOC(C)(C)C1` (centres unmarked) [Example 64, 3-((2,2-dimethyltetrahydro-2H-pyran-4-yl)(ethyl)amino)-5-(1-isopropyl-2-carbonyl-2′,3′,5′,6′-tetrahydrospiro[dihydroindole-3,4′-pyran]-6-yl)-N-((4-methoxy-6-methyl-2-carbonyl-1,2-dihydropyridin-3-yl)methyl)-2-methylbenzamide], for which the IC50 in series [1] (setting [4]) was 0.81 nM.

`CCN(c1cc(-c2ccc3c(c2)C2(CC3)CC(C)N(CC)C(C)C2)cc(C(=O)NCc2c(OC)cc(C)[nH]c2=O)c1C)C1CCOCC1` (centres unmarked) [Example 50, 3-(ethyl(tetrahydro-2H-pyran-4-yl)amino)-5-(1′-ethyl-2′,6′-dimethyl-2,3-dihydrospiro[indene-1,4′-piperidine]-6-yl)-N-((4-methoxy-6-methyl-2-oxo-1,2-dihydropyridin-3-yl)methyl)-2-methylbenzamide formate]: the AUC in series [2] (setting [5]) came to 954 ng·h/mL. In addition, the half-life in series [2] was 1.34 h. Further, in series [2] (setting [6]), the AUC turned out to be 1350 ng·h/mL and the Cmax stood at 448 ng/mL. Moreover, the bioavailability in series [2] (setting [7]) turned out to be 28.2%. The IC50 in series [1] (setting [4]) was 1.08 nM.

With `CCN(c1cc(-c2cc3c(cc2F)CCC32CCOCC2)cc(C(=O)NCc2c(OC)cc(C)[nH]c2=O)c1C)C1CCOCC1` [Example 16, 3-(ethyl(tetrahydro-2H-pyran-4-yl)amino)-5-(5-fluoro-2,2′,3,3′,5′,6′-hexahydrospiro[indene-1,4′-pyran]-6-yl)-N-((4-methoxy-6-methyl-2-carbonyl-1,2-dihydropyridin-3-yl)methyl)-2-methylbenzamide], the AUC in series [2] (setting [5]) worked out at 956 ng·h/mL. Also, the half-life in series [2] was 1.42 h. In series [2] (setting [6]), the AUC stood at 1310 ng·h/mL and the Cmax came out at 480 ng/mL. Further, the bioavailability in series [2] (setting [7]) is 27.4%.

Regarding `CCN(c1cc(-c2ccc3c(c2)N(C)CC32CCOCC2)cc(C(=O)NCc2c(OC)cc(C)[nH]c2=O)c1C)C1CCN(CC(F)(F)F)CC1` [Example 40, 3-(ethyl(1-(2,2,2-trifluoroethyl)piperidin-4-yl)amino)-N-((4-methoxy-6-methyl-2-carbonyl-1,2-dihydropyridin-3-yl)methyl)-2-methyl-5-(1-methyl-2′,3′,5′,6′-tetrahydrospiro[dihydroindole-3,4′-pyran]-6-yl)benzamide], the IC50 in series [3] was 2.49 nM; in series [1] (setting [8]), 3.09 nM.

With `CCN(c1cc(-c2ccc3c(c2)NC(=O)C32CCOCC2)cc(C(=O)NCc2c(OC)cc(C)[nH]c2=O)c1C)C1CCNCC1` [Example 3, 3-(ethyl(piperidin-4-yl)amino)-N-((4-methoxy-6-methyl-2-oxo-1,2-dihydropyridin-3-yl)methyl)-2-methyl-5-(2-oxo-2′,3′,5′,6′-tetrahydrospiro[dihydroindole-3,4′-pyran]-6-yl)benzamide], the AUC in series [2] (setting [5]) was found to be 948 ng·h/mL. In addition, the half-life in series [2] is 1.15 h. For the same compound, in series [2] (setting [6]), the AUC turned out to be 1570 ng·h/mL and the Cmax came out at 415 ng/mL. Also, the bioavailability in series [2] (setting [7]) was 33.1%.

As for `CCN(c1cc(-c2ccc3c(c2)N(C)CC32CCN(C(=O)OC)CC2)cc(C(=O)NCc2c(C)cc(C)[nH]c2=O)c1C)C1CCOCC1` [Example 33, Methyl 6-(3-(((4,6-dimethyl-2-carbonyl-1,2-dihydropyridin-3-yl)methyl)carbamoyl)-5-(ethyl(tetrahydro-2H-pyran-4-yl)amino)-4-methylphenyl)-1-methylspiro[dihydroindole-3,4′-piperidine]-1′-carboxylate], the IC50 in series [3] is 3.1 nM; in series [1] (setting [8]), 4.92 nM.

As to `CCN(c1cc(-c2ccc3c(c2)NC(=O)C32CCOCC2)cc(C(=O)NCc2c(OC)cc(C)[nH]c2=O)c1C)C1CCOCC1` [Example 115, 3-(Ethyl(tetrahydro-2H-pyran-4-yl)amino)-N-((4-methoxy-6-methyl-2-oxo-1,2-dihydropyridin-3-yl)methyl)-2-methyl-5-(2-oxo-2′,3′,5′,6′-tetrahydrospiro[dihydroindole-3,4′-pyran]-6-yl)benzamide], the AUC in series [2] (setting [5]) was 948 ng·h/mL. Besides, the half-life in series [2] is 1.15 h. In series [2] (setting [6]), the AUC is 1570 ng·h/mL and the Cmax came to 415 ng/mL. The bioavailability in series [2] (setting [7]) came to 33.1%.

As for `CCN1C(=O)C2(CCOCC2)c2ccc(-c3cc(C(=O)NCc4c(C)cc(C)[nH]c4=O)c(C)c(N(CC)C4CCOCC4)c3)cc21` [Example 18, N-((4,6-dimethyl-2-carbonyl-1,2-dihydropyridin-3-yl)methyl)-3-(ethyl(tetrahydro-2H-pyran-4-yl)amino)-5-(1-ethyl-2-carbonyl-2′,3′,5′,6′-tetrahydrospiro[dihydroindole-3,4′-pyran]-6-yl)-2-methylbenzamide], the AUC in series [2] (setting [5]) came out at 932 ng·h/mL. The half-life in series [2] was 1.35 h. Also, in series [2] (setting [6]), the AUC was 1190 ng·h/mL and the Cmax was 472 ng/mL. For the same compound, the bioavailability in series [2] (setting [7]) amounted to 25.5%.

In the case of `CCN(c1cc(-c2ccc3c(c2)N(C(C)C)CC32CCOCC2)c(Cl)c(C(=O)NCc2c(OC)cc(C)[nH]c2=O)c1C)C1CCOCC1` [Example 49, 2-chloro-5-(ethyl(tetrahydro-2H-pyran-4-yl)amino)-3-(1-isopropyl-2,3,5,6-tetrahydrospiro[dihydroindole-3,4-pyran]-6-yl)-N-((4-methoxy-6-methyl-2-oxo-1,2-dihydropyridin-3-yl)methyl)-6-methylbenzamide], the AUC in series [2] (setting [5]) came out at 997 ng·h/mL. In addition, in series [2], the half-life is 1.31 h. In addition, in series [2] (setting [6]), the AUC stood at 1300 ng·h/mL and the Cmax was found to be 598 ng/mL. In series [2] (setting [7]), the bioavailability turned out to be 26.2%.

`CCN(c1cc(-c2ccc3c(c2)NC(=O)C32CCNCC2)cc(C(=O)NCc2c(OC)cc(C)[nH]c2=O)c1C)C1CCNCC1` [Example 116, 3-(Ethyl(piperidin-4-yl)amino)-N-((4-methoxy-6-methyl-2-oxo-1,2-dihydropyridin-3-yl)methyl)-2-methyl-5-(2-oxospiro[indole-3,4′-piperidine]-6-yl)benzamide]: in series [2] (in vivo, po, 20 mg/kg), the bioavailability came out at 34.3%. Besides, the AUC in series [2] (setting [5]) was 912 ng·h/mL. Further, in series [2], the half-life is 1.05 h. In addition, in series [2] (setting [6]), the AUC stood at 1570 ng·h/mL and the Cmax was 453 ng/mL.

Regarding `CCN(c1cc(-c2ccc3c(c2)N(C)C(=O)C32CCN(C(C)C)CC2)c(F)c(C(=O)NCc2c(C)cc(C)[nH]c2=O)c1C)C1CCOCC1` [Example 61, N-((4,6-dimethyl-2-oxo-1,2-dihydropyridin-3-yl)methyl)-3-(ethyl(tetrahydro-2H-pyran-4-yl)amino)-6-fluoro-5-(1′-isopropyl-1-methyl-2-oxospiro[dihydroindole-3,4′-piperidine]-6-yl)-2-methylbenzamide], in series [2] (setting [5]), the AUC is 932 ng·h/mL. In addition, the half-life in series [2] was 1.72 h. In series [2] (setting [6]), the AUC amounted to 1250 ng·h/mL and the Cmax came to 426 ng/mL. The bioavailability in series [2] (setting [7]) was 26.8%.

Take `CCN(c1cc(-c2ccc3c(c2)N(C(=O)C(F)(F)F)CC32CCOCC2)cc(C(=O)NCc2c(C)cc(C)[nH]c2=O)c1C)C1CCOCC1` [Example 75, 5-(1-trifluoroacetyl-2′,3′,5′,6′-tetrahydrospiro[dihydroindole-3,4′-pyran]-6-yl)-N-((4,6-dimethyl-2-carbonyl-1,2-dihydropyridin-3-yl)methyl)-3-(ethyl(tetrahydro-2H-pyran-4-yl)amino)-2-methylbenzamide]: in series [3], the IC50 is 0.87 nM.
